Measurements: ChEMBL document CHEMBL4043296 (J Med Chem, 2018)
pEC50, pKi: −log10 of the molar value.

Columns and labels:
[1] = target: T1, Alpha-1B adrenergic receptor (Homo sapiens, UniProt P35368); assay: Displacement of [3H]prazosin from human recombinant alpha-1B adrenergic receptor expressed in CHO cell membranes after 30 mins by liquid scintillation counting method
T1 sequence (P35368 whole entry): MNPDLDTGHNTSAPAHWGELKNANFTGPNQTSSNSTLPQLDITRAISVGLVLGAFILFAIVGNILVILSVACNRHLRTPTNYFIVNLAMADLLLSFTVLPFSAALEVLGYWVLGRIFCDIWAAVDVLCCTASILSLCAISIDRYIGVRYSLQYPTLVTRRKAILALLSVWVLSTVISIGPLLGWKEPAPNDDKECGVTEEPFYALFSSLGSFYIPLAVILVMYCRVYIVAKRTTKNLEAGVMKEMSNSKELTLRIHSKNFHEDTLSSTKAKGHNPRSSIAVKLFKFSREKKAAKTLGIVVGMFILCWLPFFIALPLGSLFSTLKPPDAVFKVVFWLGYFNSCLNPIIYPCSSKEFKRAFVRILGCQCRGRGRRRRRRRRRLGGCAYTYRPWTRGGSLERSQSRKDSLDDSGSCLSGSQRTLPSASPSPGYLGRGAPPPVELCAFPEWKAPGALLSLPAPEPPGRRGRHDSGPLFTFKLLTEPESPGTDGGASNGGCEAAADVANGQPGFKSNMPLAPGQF

[2] = Half life in mouse liver microsomes at 0.5 uM preincubated for 30 mins followed by NADPH addition measured over 30 mins by HPLC-MS/MS method; assay type: ADME, microsome
MDR1 = assay: Apparent passive permeability across apical to basolateral side in MDCK2 cells expressing MDR1 at 3 uM after 60 mins by mass spectroscopy; assay type: ADME, cell-based, Canis lupus familiaris, MDCK-II; conditions: dog, MDCK-MDR1
[3] = target: Beta-2 adrenergic receptor (Homo sapiens, UniProt P07550); assay: Displacement of [3H]CGP12177 from human recombinant beta2 adrenergic receptor expressed in HEK293 cell membranes after 90 mins by beta counting method
Chain of Beta-2 adrenergic receptor (P07550 whole entry, the tested form may be a part): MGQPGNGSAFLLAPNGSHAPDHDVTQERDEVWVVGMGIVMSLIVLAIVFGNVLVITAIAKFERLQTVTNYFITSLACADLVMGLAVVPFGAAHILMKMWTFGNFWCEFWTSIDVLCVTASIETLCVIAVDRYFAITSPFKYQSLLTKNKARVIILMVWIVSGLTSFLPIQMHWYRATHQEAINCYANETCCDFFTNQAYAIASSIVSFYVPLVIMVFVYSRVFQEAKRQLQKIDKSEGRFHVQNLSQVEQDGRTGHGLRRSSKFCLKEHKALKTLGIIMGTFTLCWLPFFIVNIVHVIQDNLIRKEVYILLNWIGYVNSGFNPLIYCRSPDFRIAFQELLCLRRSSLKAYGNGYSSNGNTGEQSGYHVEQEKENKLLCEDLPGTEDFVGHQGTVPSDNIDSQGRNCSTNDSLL

[4] = target: T2, Muscarinic acetylcholine receptor M4 (Homo sapiens, UniProt P08173); assay: Agonist activity at human SP/Myc epitope-tagged muscarinic M4 receptor expressed in HEK293T cells assessed as RLuc8-fused Galphaq activation after 2 mins by BRET assay; assay type: cell-based, HEK-293T
T2 sequence (P08173 whole entry): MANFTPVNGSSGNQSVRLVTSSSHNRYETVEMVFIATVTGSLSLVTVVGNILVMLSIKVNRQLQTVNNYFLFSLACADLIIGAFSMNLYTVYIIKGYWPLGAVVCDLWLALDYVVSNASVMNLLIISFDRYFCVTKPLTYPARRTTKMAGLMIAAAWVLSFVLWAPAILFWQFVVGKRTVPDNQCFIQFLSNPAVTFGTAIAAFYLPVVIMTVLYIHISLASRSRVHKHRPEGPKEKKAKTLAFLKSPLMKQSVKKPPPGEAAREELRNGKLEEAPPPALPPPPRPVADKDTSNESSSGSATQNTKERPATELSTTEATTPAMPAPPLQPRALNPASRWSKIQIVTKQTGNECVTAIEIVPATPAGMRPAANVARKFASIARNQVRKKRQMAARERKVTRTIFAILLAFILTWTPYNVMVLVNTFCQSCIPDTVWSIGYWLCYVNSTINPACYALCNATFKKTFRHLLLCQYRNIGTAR

[5] = target: Sigma non-opioid intracellular receptor 1 (Cavia porcellus, UniProt Q60492); assay: Displacement of [3H](+)-pentazocine from sigma1 receptor in Hartley guinea pig brain cortex after 120 mins by scintillation counting method
Chain of Sigma non-opioid intracellular receptor 1 (Q60492 whole entry): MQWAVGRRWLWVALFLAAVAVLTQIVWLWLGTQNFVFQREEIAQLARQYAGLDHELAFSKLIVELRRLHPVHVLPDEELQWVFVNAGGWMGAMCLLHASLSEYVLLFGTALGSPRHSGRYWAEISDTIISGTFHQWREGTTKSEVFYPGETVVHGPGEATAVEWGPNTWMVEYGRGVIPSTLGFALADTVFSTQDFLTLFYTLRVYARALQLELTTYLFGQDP

[6] = target: T3, Muscarinic acetylcholine receptor M2 (Homo sapiens, UniProt P08172); assay: Displacement of [3H]NMS from human muscarinic M2 receptor expressed in CHO cell membranes after 2 hrs by liquid scintillation counting method
T3 sequence (P08172 whole entry): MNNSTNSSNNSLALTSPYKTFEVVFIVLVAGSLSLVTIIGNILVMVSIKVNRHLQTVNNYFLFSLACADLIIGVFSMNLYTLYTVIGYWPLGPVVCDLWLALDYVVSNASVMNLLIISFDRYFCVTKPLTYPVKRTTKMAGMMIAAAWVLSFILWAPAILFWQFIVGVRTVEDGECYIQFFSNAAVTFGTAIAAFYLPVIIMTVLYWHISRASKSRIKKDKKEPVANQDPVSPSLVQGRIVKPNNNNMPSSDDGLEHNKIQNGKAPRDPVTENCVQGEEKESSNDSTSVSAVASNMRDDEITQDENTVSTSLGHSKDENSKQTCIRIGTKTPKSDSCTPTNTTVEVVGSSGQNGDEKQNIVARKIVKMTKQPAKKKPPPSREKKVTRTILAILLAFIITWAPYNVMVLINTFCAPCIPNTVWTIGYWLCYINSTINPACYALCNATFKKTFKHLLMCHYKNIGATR

[7] = Fraction unbound in human plasma at 0.5 uM by equilibrium dialysis method; assay type: ADME, cell-free
[8] = target: Sodium-dependent dopamine transporter (Rattus norvegicus, UniProt P23977); assay: Displacement of [3H]WIN 35,428 from DAT in Sprague-Dawley rat striatum after 120 mins by scintillation counting method
Chain of Sodium-dependent dopamine transporter (P23977 whole entry, the tested form may be a part): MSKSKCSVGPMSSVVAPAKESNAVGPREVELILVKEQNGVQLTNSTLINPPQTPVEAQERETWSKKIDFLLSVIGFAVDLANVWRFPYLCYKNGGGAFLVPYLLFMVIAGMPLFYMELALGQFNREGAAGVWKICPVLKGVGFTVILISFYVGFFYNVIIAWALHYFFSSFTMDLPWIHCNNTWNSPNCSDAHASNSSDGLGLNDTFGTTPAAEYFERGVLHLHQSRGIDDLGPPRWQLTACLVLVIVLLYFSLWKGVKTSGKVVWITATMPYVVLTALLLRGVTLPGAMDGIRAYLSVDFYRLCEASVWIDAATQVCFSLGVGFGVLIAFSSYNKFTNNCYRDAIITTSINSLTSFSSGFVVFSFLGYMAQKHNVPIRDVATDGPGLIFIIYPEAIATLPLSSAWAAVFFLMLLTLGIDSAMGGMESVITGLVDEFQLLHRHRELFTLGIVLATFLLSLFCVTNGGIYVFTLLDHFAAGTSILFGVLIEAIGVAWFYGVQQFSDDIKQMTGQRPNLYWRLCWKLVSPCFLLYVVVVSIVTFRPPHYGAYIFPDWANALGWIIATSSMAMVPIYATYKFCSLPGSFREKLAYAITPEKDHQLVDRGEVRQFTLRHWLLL

[9] = target: T4, Muscarinic acetylcholine receptor M1 (Homo sapiens, UniProt P11229); assay: Agonist activity at human SP/Myc epitope-tagged muscarinic M1 receptor expressed in HEK293T cells assessed as RLuc8-fused Galphaq activation after 2 mins by BRET assay; assay type: cell-based, HEK-293T
T4 sequence (P11229 whole entry): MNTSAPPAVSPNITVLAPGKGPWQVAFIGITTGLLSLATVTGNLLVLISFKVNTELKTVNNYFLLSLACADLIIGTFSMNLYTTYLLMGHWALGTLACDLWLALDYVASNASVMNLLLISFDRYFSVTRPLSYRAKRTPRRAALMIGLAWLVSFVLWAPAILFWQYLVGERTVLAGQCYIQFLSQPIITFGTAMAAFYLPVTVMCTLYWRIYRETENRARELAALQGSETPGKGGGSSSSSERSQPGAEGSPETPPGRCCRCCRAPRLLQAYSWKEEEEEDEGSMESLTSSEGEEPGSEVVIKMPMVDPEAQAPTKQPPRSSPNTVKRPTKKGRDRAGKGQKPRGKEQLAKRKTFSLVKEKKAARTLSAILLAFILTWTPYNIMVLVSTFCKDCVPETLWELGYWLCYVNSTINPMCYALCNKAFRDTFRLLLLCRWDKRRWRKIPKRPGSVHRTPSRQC

[10] = Intrinsic clearance in mouse liver microsomes assessed per mg of protein at 0.5 uM preincubated for 30 mins followed by NADPH addition measured after 30 mins by HPLC-MS/MS method; assay type: ADME, microsome; conditions: read-out: CLH
D(2) dopamine receptor = D(2) dopamine receptor (Homo sapiens, UniProt P14416); assay: Displacement of [3H]N-methylspiperone from human dopamine D2 receptor expressed in HEK293 cell membranes after 1 hr by scintillation counting method
Chain of D(2) dopamine receptor (P14416 whole entry): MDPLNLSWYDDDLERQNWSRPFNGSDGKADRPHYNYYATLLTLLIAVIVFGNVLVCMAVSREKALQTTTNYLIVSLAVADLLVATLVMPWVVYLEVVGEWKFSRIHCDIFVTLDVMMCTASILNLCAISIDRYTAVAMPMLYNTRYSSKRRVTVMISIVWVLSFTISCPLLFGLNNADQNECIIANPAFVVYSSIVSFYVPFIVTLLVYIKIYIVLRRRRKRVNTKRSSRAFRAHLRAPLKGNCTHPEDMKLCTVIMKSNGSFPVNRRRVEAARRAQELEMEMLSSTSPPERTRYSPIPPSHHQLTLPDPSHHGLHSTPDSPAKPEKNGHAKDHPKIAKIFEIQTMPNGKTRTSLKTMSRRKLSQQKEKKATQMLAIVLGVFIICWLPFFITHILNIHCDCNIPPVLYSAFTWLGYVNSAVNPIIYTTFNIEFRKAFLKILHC

D(3) dopamine receptor = D(3) dopamine receptor (Homo sapiens, UniProt P35462); assay: Displacement of [3H]N-methylspiperone from human dopamine D3 receptor expressed in HEK293 cell membranes after 1 hr by scintillation counting method
Chain of D(3) dopamine receptor (P35462 whole entry): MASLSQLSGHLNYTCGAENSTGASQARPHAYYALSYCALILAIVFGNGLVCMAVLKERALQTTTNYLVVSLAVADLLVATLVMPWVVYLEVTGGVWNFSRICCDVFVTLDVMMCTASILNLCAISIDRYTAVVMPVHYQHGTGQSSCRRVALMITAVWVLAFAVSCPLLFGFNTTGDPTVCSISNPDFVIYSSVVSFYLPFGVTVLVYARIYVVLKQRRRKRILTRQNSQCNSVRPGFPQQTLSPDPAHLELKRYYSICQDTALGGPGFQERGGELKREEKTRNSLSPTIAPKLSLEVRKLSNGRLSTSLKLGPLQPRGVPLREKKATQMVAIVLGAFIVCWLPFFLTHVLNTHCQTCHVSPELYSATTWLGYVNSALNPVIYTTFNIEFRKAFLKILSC

Structure (SMILES) | pKi [1] | half-life at 0.5 µM [2] [min] | Papp A→B at 1 h, 3 µM (MDR1) [×10⁻⁶ cm/s] | pKi [3] | pEC50 [4] | pKi [5] | pKi [6] | fraction unbound at 0.5 µM [7] | pKi [8] | pEC50 [9] | microsomal CLint at 0.5 µM [10] [µL/min/mg] | pKi (D(2) dopamine receptor) | pKi (D(3) dopamine receptor)
O=C1CCc2ccccc2N1CCCN1CCN(c2ccccc2)CC1 | 7.13 | 8.71 | 16.2 | 4.45 | 6.23 | 6.57 | 4.78 | 0.033 | 5.06 | 6.19 | 159 | 5.96 | 5.88
O=C1CCc2ccccc2N1CCCN1CCC(Cc2ccccc2)CC1 | 6.65 | 3.5 | 10.9 | 5.02 | 6.83 | 8.00 | 6.10 | 0.057 | 6.35 | 6.73 | 396 | 6.04 | 5.74
